Residues, ends and D or L forms follow the SMILES beside them.
Test system: primary human macrophages
Assay: Polynucleotide arrays of primary human macrophages treated with SEQ ID NO: 6 (Tables 27, 28)
Format: cell-based
Details: 50 μg/ml, 4 h

CC[C@H](C)[C@H](NC(=O)[C@@H]1CCCN1C(=O)[C@H](CS)NC(=O)[C@H](CCCNC(=N)N)NC(=O)[C@@H](N)CC(C)C)C(=O)N[C@@H](C)C(=O)N1CCC[C@H]1C(=O)N[C@H](C(=O)N[C@H](C(=O)N1CCC[C@H]1C(=O)N[C@H](C(=O)N[C@@H](CS)C(=O)N[C@@H](CCCCN)C(=O)N[C@@H](CCCCN)C(=O)O)C(C)C)[C@@H](C)CC)C(C)C [SEQ ID NO: 6] (H-LRCPIAPVIPVCKK-OH; N-terminus and C-terminus assumed) was tested, and the “Ratio peptide treated:control, Unknown” value (A433612) was 5.0, the “Ratio peptide treated:control, KIAA1278 protein” value (AB03104) was 2.9 and the “Ratio peptide treated:control, proteasome 26S subunit non-ATPase 13” value (AB009398) was 0.44. The “Ratio peptide treated:control, KIAA0532 protein” value (AB011104) was 2.8, the “Ratio peptide treated:control, KIAA0592 protein” value (AB011164) was 4.0 and the “Ratio peptide treated:control, IL-1 receptor-like 1” value (AB012701) was 0.35. The “Ratio peptide treated:control, interferon alpha-inducible protein” value (AB019565) was 0.35, the “Ratio peptide treated:control, KIAA0842 protein” value (AB020649) was 0.13 and the “Ratio peptide treated:control, KIAA0922 protein” value (AB023139) was 2.1. The “Ratio peptide treated:control, KIAA1013 protein” value (AB023230) was 3.4, the “Ratio peptide treated:control, protease, serine, 21” value (AB031331) was 2.0 and the “Ratio peptide treated:control, hypothetical protein FLJ20689” value (AB032978) was 2.9. The “Ratio peptide treated:control, cofactor required for Sp1 transcriptional activation subunit 3” value (AB033042) was 0.23, the “Ratio peptide treated:control, pancreatic zymogen granule membrane associated protein” value (AB035541) was 3.7 and the “Ratio peptide treated:control, Unknown” value (AB037838) was 0.14. For the same molecule, the “Ratio peptide treated:control, CDC14 homolog A” value (AF000367) was 3.8, the “Ratio peptide treated:control, TNF receptor superfamily, member 10b” value (AF016266) was 0.37 and the “Ratio peptide treated:control, TNF superfamily, member 15” value (AF039390) was 0.46. For the same molecule, the “Ratio peptide treated:control, transcription factor 21” value (AF047419) was 5.4, the “Ratio peptide treated:control, proteasome subunit alpha type, 7” value (AF054185) was 0.40 and the “Ratio peptide treated:control, Granulin” value (AF055008) was 0.14. The “Ratio peptide treated:control, matrix metalloproteinase 23A” value (AF056200) was 2.7, the “Ratio peptide treated:control, chromosome condensation 1-like” value (AF060219) was 4.8 and the “Ratio peptide treated:control, Unknown” value (AF068289) was 2.8. For the same molecule, the “Ratio peptide treated:control, histone fold proteinCHRAC17” value (AF070640) was 3.8, the “Ratio peptide treated:control, NADH dehydrogenase 1 alpha subcomplex, 10” value (AF087661) was 2.1 and the “Ratio peptide treated:control, potassium voltage-gated channel KQT-like subfamily member 4” value (AF105202) was 3.9. For the same molecule, the “Ratio peptide treated:control, FYN-binding protein” value (AF198052) was 3.3, the “Ratio peptide treated:control, c-Cbl-interacting protein” value (AF230904) was 2.4 and the “Ratio peptide treated:control, hypothetical protein FLJ20070” value (AK000077) was 3.4. The “Ratio peptide treated:control, hypothetical protein FLJ20495” value (AK000502) was 3.5, the “Ratio peptide treated:control, Unknown” value (AK001843) was 8.2 and the “Ratio peptide treated:control, peroxisome proliferative activated receptor delta” value (AL022721) was 0.46. The “Ratio peptide treated:control, proteasome 26S subunit non-ATPase, 10” value (AL031177) was 0.32, the “Ratio peptide treated:control, Unknown” value (AL031864) was 2.9 and the “Ratio peptide treated:control, Unknown” value (AL049263) was 0.06. The “Ratio peptide treated:control, DKFZP586B2420 protein” value (AL050143) was 5.9, the “Ratio peptide treated:control, Unknown” value (AL050370) was 0.38 and the “Ratio peptide treated:control, Unknown” value (AL109678) was 5.6. For the same molecule, the “Ratio peptide treated:control, Unknown” value (AL117643) was 2.7, the “Ratio peptide treated:control, eukaryotic translation initiation factor 4A, isoform 2” value (AL137681) was 3.4 and the “Ratio peptide treated:control, Unknown” value (AL137715) was 4.4. The “Ratio peptide treated:control, proteasome subunit alpha type, 4” value (D00763) was 0.49, the “Ratio peptide treated:control, proteasome 26S subunit ATPase, 2” value (D11094) was 0.49 and the “Ratio peptide treated:control, defender against cell death 1” value (D15057) was 0.46. For the same molecule, the “Ratio peptide treated:control, proteasome subunit beta type, 4” value (D26600) was 0.29, the “Ratio peptide treated:control, proteasome subunit beta type, 5” value (D29011) was 0.33 and the “Ratio peptide treated:control, proteasome 26S subunit non-ATPase 8” value (D38047) was 0.28. The “Ratio peptide treated:control, proteasome subunit beta type 7” value (D38048) was 0.22, the “Ratio peptide treated:control, KIAA0152 gene product” value (D63486) was 0.17 and the “Ratio peptide treated:control, Cryptochrome 1” value (D83702) was 3.8. For the same molecule, the “Ratio peptide treated:control, TGFB1-induced anti-apoptotic factor 1” value (D86970) was 0.19, the “Ratio peptide treated:control, MAP kinase kinase 3” value (D87116) was 0.37 and the “Ratio peptide treated:control, proteasome 26S subunit ATPase, 1” value (L02426) was 0.49. For the same molecule, the “Ratio peptide treated:control, MAP kinase kinase 1” value (L11284) was 2.4, the “Ratio peptide treated:control, MAP kinase 14” value (L35263) was 2.2 and the “Ratio peptide treated:control, interferon receptor 2” value (L42243) was 2.5. The “Ratio peptide treated:control, IL-1 receptor-associated kinase 1” value (L76191) was 0.45, the “Ratio peptide treated:control, LINE retrotransposable element 1” value (M22333) was 4.0 and the “Ratio peptide treated:control, TNF receptor superfamily member 1B” value (M32315) was 0.29. For the same molecule, the “Ratio peptide treated:control, proteasome 26S subunit, ATPase, 3” value (M34079) was 0.35, the “Ratio peptide treated:control, proteasome subunit beta type, 6” value (M34079) was 0.38 and the “Ratio peptide treated:control, lymphocyte antigen” value (M38056) was 3.2. The “Ratio peptide treated:control, H1 histone family, member 4” value (M60748) was 3.0, the “Ratio peptide treated:control, Cathepsin D” value (M63138) was 0.36 and the “Ratio peptide treated:control, protein kinase, cAMP-dependent, regulatory, type I, beta” value (M65066) was 2.9. The “Ratio peptide treated:control, TGF, beta-induced,” value (M77349) was 0.37, the “Ratio peptide treated:control, S100 calcium-binding protein A4” value (M80563) was 0.31 and the “Ratio peptide treated:control, cathepsin E” value (M84424) was 2.7. For the same molecule, the “Ratio peptide treated:control, actinin, alpha 3” value (M86407) was 6.9, the “Ratio peptide treated:control, interferon regulatory factor 2” value (NM 002199) was 2.0 and the “Ratio peptide treated:control, calumenin” value (NM_001219) was 2.9. For the same molecule, the “Ratio peptide treated:control, glutathione peroxidase 3” value (NM_002084) was 0.15, the “Ratio peptide treated:control, LPS-induced TNF-alpha factor” value (NM_004862) was 0.41 and the “Ratio peptide treated:control, bone morphogenetic protein 1” value (NM_006129) was 2.1. The “Ratio peptide treated:control, MAP kinase kinase kinase 2” value (NM_006609) was 0.32, the “Ratio peptide treated:control, SDF receptor 1” value (NM_012428) was 0.35 and the “Ratio peptide treated:control, TERF1 (TRF1)-interacting nuclear factor 2” value (NM_012461) was 4.2. The “Ratio peptide treated:control, nuclear receptor binding protein” value (NM_013392) was 0.38, the “Ratio peptide treated:control, cyclin-dependent kinase inhibitor 1B” value (S76988) was 2.2 and the “Ratio peptide treated:control, POU domain, class 4, transcription factor 2” value (U06233) was 2.8. The “Ratio peptide treated:control, MAP kinase kinase kinase kinase 2” value (U07349) was 0.46, the “Ratio peptide treated:control, MAP kinase-activated protein kinase 2” value (U12779) was 0.34 and the “Ratio peptide treated:control, caspase 3” value (U13737) was 0.35. The “Ratio peptide treated:control, MAP kinase kinase 5” value (U25265) was 0.44, the “Ratio peptide treated:control, E2F transcription factor 5, p130-binding” value (U31556) was 3.5 and the “Ratio peptide treated:control, TNF superfamily member 10” value (U37518) was 0.46. The “Ratio peptide treated:control, integrin-linked kinase” value (U40282) was 0.13, the “Ratio peptide treated:control, guanine nucleotide binding protein, gamma transducing activity polypeptide 1” value (U41492) was 3.3 and the “Ratio peptide treated:control, mucosal vascular addressin cell adhesion molecule 1” value (U43628) was 3.2. The “Ratio peptide treated:control, 1-acylglycerol-3-phosphate O-acyltransferase 1” value (U56417) was 4.0, the “Ratio peptide treated:control, caspase 7” value (U67319) was 0.49 and the “Ratio peptide treated:control, apoptosis inhibitor 4” value (U75285) was 4.2. For the same molecule, the “Ratio peptide treated:control, TNF receptor superfamily, member 14” value (U81232) was 0.26, the “Ratio peptide treated:control, bone morphogenetic protein receptor, type IB” value (U89326) was 2.1 and the “Ratio peptide treated:control, transferrin receptor” value (X01060) was 0.42. For the same molecule, the “Ratio peptide treated:control, protease inhibitor 1 alpha-1-antitrypsin” value (X01683) was 0.40, the “Ratio peptide treated:control, Cathepsin L” value (X12451) was 0.44 and the “Ratio peptide treated:control, cytochrome c oxidase subunit Vic” value (X13238) was 0.30. The “Ratio peptide treated:control, cathepsin H” value (X16832) was 0.47, the “Ratio peptide treated:control, protein kinase C, alpha” value (X52479) was 2.4 and the “Ratio peptide treated:control, glycoprotein IX” value (X52997) was 3.4. For the same molecule, the “Ratio peptide treated:control, glypican 1” value (X54232) was 3.2, the “Ratio peptide treated:control, jun D proto-oncogene” value (X56681) was 0.35 and the “Ratio peptide treated:control, proteasome subunit alpha type, 6” value (X59417) was 0.31. The “Ratio peptide treated:control, Sp3 transcription factor” value (X68560) was 3.6, the “Ratio peptide treated:control, Vacuolar proton-ATPase, subunit D; V-ATPase, subunit D” value (X71490) was 4.0 and the “Ratio peptide treated:control, chymotrypsin-like protease” value (X71877) was 2.9. For the same molecule, the “Ratio peptide treated:control, phosphorylase kinase alpha 1” value (X73874) was 7.1, the “Ratio peptide treated:control, zinc finger protein 266” value (X78924) was 2.2 and the “Ratio peptide treated:control, ribosomal protein L11” value (X79234) was 0.32. For the same molecule, the “Ratio peptide treated:control, translational inhibitor protein p14.5” value (X95384) was 3.0, the “Ratio peptide treated:control, c-fos induced growth factor” value (Y12864) was 2.3 and the “Ratio peptide treated:control, disintegrin protease” value (Y13323) was 0.21. For the same molecule, the “Ratio peptide treated:control, matrix metalloproteinase 7” value (Z11887) was 0.49, the “Ratio peptide treated:control, proteoglycan 2” value (Z26248) was 9.3 and the “Ratio peptide treated:control, matrix metalloproteinase 14” value (Z48481) was 0.32. The “Ratio peptide treated:control, POU domain, class 2, associating factor 1” value (Z49194) was 2.8 and the “Ratio peptide treated:control, protease inhibitor 12” value (Z81326) was 0.48.

Source: US20070134261A1, “Effectors of innate immunity” (priority 2001, published 2007)
